From patent publication US8784898B2, “Methods of wound care and treatment” (Revalesio Corporation, priority 2006, dated 2014)

System: Methicillin-Resistant Staphylococcus Aureus (MRSA)
Experiment: MRSA bacteriocidal effects in combination with oxacillin
Assay type: cell-based
Parameters: concentration or dose not given beside the values

Measured: Percentage of plates with no growth

Cc1onc(-c2ccccc2)c1C(=O)N[C@@H]1C(=O)N2[C@@H]1SC(C)(C)[C@@H]2C(=O)O [Drug, oxacillin]
16.67%: 0 min
0.00%: 30 min | 120 min | 240 min | 480 min | 1080 min | 1440 min
